Experimental data reported in patent US9198893B2, “Combination antitumor therapy” (GALERA LABS, LLC, priority 2008, dated 2015).

What was measured:
[1] = Activity of superoxide dismutase mimetic toward hydrogen peroxide (selectivity); type: biochemical
CT26 mouse colon tumor = assay: Mouse colon tumor model, first experiment (CT26 fragments implanted in BALB/c mice); type: in vivo; settings: SOD mimetic 6 mg/kg IP twice daily from day 6, combined with gemcitabine 80 mg/kg IP on days 6, 9, 12, 15; compared with gemcitabine alone
Description: A. In a first experiment, fragments of CT26 mouse colon tumor were implanted in female BALB/c mice and allowed to grow for 6 days to a size of about 110 mg (107-115 mg).
On this day, day 6, mice were administered 6 mg/kg of KM4403 or KM4419 intraperitoneally (IP) and dosing was continued twice daily for the duration of the study.
In some groups, gemcitabine was administered on days 6, 9, 12 and 15 at a dosage of 80 mg/kg, also via IP, 10 minutes after the administration of KM4403 or KM4419.

[2] = combination with interleukin-2; Samlowski et al., Nature Medicine (2003); cited from earlier work
[3] = test system: human A549 non-small lung carcinoma cells; assay: Non-small cell lung cancer tumor model (A549 cells implanted into flanks of BALB/c mice); type: in vivo; settings: KM4419 30 mg/kg IP on days 9-23, combined with paclitaxel 12.5 mg/kg IP on days 9 and 13; compared with either drug alone; FIG. 2
Description: In a manner similar to that of Example 1, human A549 non-small lung carcinoma cells were implanted into the flanks of female BALB/c mice, and the tumors were allowed to grow until day 9. Group 1 was administered only vehicle. Group 2 (n=10) was administered only paclitaxel at 12.5 mg/kg IP on days 9 and 13. In group 3 (n=10), the mice were administered 30 mg/kg of KM4419 IP on days 9-23. In group 4 (n=10), a combination of these protocols was administered.

C26 colon tumor = assay: Mouse colon tumor model, second experiment (C26 fragments implanted in BALB/c mice); type: in vivo; settings: KM4419 10 mg/kg or 20 mg/kg twice daily from day 7, combined with gemcitabine 120 mg/kg IP on days 7, 13, 16, both KM4419 dosage levels, FIG. 1
Description: B. In a second experiment, fragments of C26 colon tumor were implanted in female BALB/c mice and grown until day 7 at which point they averaged 123 mg.
Groups 1 and 2 (n=8) were given 10 mg/kg or 20 mg/kg of KM4419 twice daily starting at day 7.
In groups 3 and 4 (n=8), gemcitabine was administered at 120 mg/kg or 160 mg/kg IP on days 7, 13 and 16.
In groups 5 and 6 (n=8), both gemcitabine and KM4419 were administered according to the foregoing regimens. Gemcitabine was administered 10 minutes after KM4419 in these groups. The levels of KM4419 were 10 mg/kg and 20 mg/kg, respectively, and the dose of gemcitabine was 120 mg/kg.

| activity toward hydrogen peroxide [1] | Compound | tumor size (CT26 mouse colon tumor) | further results |
| --- | --- | --- | --- |
| significant activity | CC(C)c1cc(C(=O)O)c([O-])c(C(C)C)c1.CC(C)c1cc(C(=O)O)c([O-])c(C(C)C)c1.[Cu+2] [CuDIPS, copper [II] diisopropylsalicylate] | – | – |
| – | [Cl][Mn-5]1234([Cl])[n+]5c6cccc5C[NH+]1[C@@H]1CCCC[C@H]1[NH+]2CC[NH+]3[C@@H]1CCCC[C@H]1[NH+]4C6 (stereo partly drawn) [KM4403] | decreased tumor size | antitumor effect of IL-2 in combination treatment [2]: potentiates the antitumor effect of IL-2 |
| – | [Cl][Mn-5]1234([Cl])[n+]5c6cccc5C[NH+]1[C@H]1CCCC[C@@H]1[NH+]2CC[NH+]3[C@H]1CCCC[C@@H]1[NH+]4C6 (stereo partly drawn) [KM4419] | decreased tumor size | effectiveness on tumor growth [3]: more effective than either drug taken alone; tumor recurrence (C26 colon tumor): delayed recurrence; tumor size (C26 colon tumor; compared with gemcitabine alone): decreased the tumor size more effectively than gemcitabine alone |
| significant activity | mangafodipir | – | – |

| Compound | activity toward hydrogen peroxide [1] | tumor size (CT26 mouse colon tumor) | further results |
| --- | --- | --- | --- |
| manganese [III] tetrakis-(5,10,15,20)-benzoic acid porphyrin [MnTBAP] | significant activity | – | – |
